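The concentration for 50% growth inhibition is given as GI50. Definition used: TGI = concentration required for complete inhibition of growth.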
Columns and labels:
Experiment in all cases: DTP human tumour cell line panel, 384-well format
786-0 renal = system: 786-0 renal
A498 renal = system: A498 renal
A549 NSCLC = system: A549 NSCLC
BT-549 breast = system: BT-549 breast
CAKI-1 renal = system: CAKI-1 renal
CCRF-CEM leukemia = system: CCRF-CEM leukemia
EKVX NSCLC = system: EKVX NSCLC
HCC-2998 colon = system: HCC-2998 colon
HCT-116 colon = system: HCT-116 colon
HCT-15 colon = system: HCT-15 colon
HL-60(TB) leukemia = system: HL-60(TB) leukemia
HOP-62 NSCLC = system: HOP-62 NSCLC
HOP-92 NSCLC = system: HOP-92 NSCLC
IGROV1 ovarian = system: IGROV1 ovarian
K-562 leukemia = system: K-562 leukemia
KM12 colon = system: KM12 colon
LOX IMVI melanoma = system: LOX IMVI melanoma
M14 melanoma = system: M14 melanoma
MALME-3M melanoma = system: MALME-3M melanoma
MCF7 breast = system: MCF7 breast
MDA-MB-231 breast = system: MDA-MB-231 breast
MOLT-4 leukemia = system: MOLT-4 leukemia
NCI-H226 lung = system: NCI-H226 lung
NCI-H23 lung = system: NCI-H23 lung
NCI-H322M lung = system: NCI-H322M lung
NCI-H522 lung = system: NCI-H522 lung
NCI/ADR-RES ovarian = system: NCI/ADR-RES ovarian
OVCAR-4 ovarian = system: OVCAR-4 ovarian
OVCAR-5 ovarian = system: OVCAR-5 ovarian
OVCAR-8 ovarian = system: OVCAR-8 ovarian
PC-3 prostate = system: PC-3 prostate
RPMI-8226 leukemia = system: RPMI-8226 leukemia
SF-268 CNS = system: SF-268 CNS
SK-MEL-2 melanoma = system: SK-MEL-2 melanoma
SK-MEL-28 melanoma = system: SK-MEL-28 melanoma
SK-MEL-5 melanoma = system: SK-MEL-5 melanoma
SK-OV-3 ovarian = system: SK-OV-3 ovarian
SN12C renal = system: SN12C renal
SNB-19 CNS = system: SNB-19 CNS
SNB-75 CNS = system: SNB-75 CNS
SR leukemia = system: SR leukemia
SW-620 colon = system: SW-620 colon
T-47D breast = system: T-47D breast
U251 glioblastoma = system: U251 glioblastoma
UACC-257 melanoma = system: UACC-257 melanoma
UACC-62 melanoma = system: UACC-62 melanoma
UO-31 renal = system: UO-31 renal

CC(C)N(CCCNC(=O)Nc1ccc(C(C)(C)C)cc1)C[C@H]1O[C@@H](n2ccc3c(N)ncnc32)[C@H](O)[C@@H]1O
GI50 ([…]-0 renal): > 100 µM
TGI (786-0 renal): > 100 µM
GI50 (A498 renal): > 100 µM
TGI (A498 renal): > 100 µM
GI50 (A549 NSCLC): > 100 µM
TGI (A549 NSCLC): > 100 µM
GI50 (BT-549 breast): > 100 µM
TGI (BT-549 breast): > 100 µM
GI50 (CAKI-1 renal): > 100 µM
TGI (CAKI-1 renal): > 100 µM
GI50 (CCRF-CEM leukemia): > 95.3 µM
TGI (CCRF-CEM leukemia): > 100 µM
GI50 (EKVX NSCLC): > 100 µM
TGI (EKVX NSCLC): > 100 µM
GI50 (HCC-2998 colon): > 100 µM
TGI (HCC-2998 colon): > 100 µM
GI50 (HCT-116 colon): > 100 µM
TGI (HCT-116 colon): > 100 µM
GI50 (HCT-15 colon): > 100 µM
TGI (HCT-15 colon): > 100 µM
GI50 (HL-60(TB) leukemia): > 92.8 µM
TGI (HL-60(TB) leukemia): > 100 µM
GI50 (HOP-62 NSCLC): > 100 µM
TGI (HOP-62 NSCLC): > 100 µM
GI50 (HOP-92 NSCLC): > 100 µM
TGI (HOP-92 NSCLC): > 100 µM
GI50 (IGROV1 ovarian): > 72.4 µM
TGI (IGROV1 ovarian): > 100 µM
GI50 (K-562 leukemia): > 100 µM
TGI (K-562 leukemia): > 100 µM
GI50 (KM12 colon): > 100 µM
TGI (KM12 colon): > 100 µM
GI50 (LOX IMVI melanoma): > 89 µM
TGI (LOX IMVI melanoma): > 100 µM
GI50 (M14 melanoma): > 100 µM
TGI (M14 melanoma): > 100 µM
GI50 (MALME-3M melanoma): 61.6 µM
TGI (MALME-3M melanoma): > 100 µM
GI50 (MCF7 breast): > 100 µM
TGI (MCF7 breast): > 100 µM
GI50 (MDA-MB-231 breast): > 100 µM
TGI (MDA-MB-231 breast): > 100 µM
GI50 (MOLT-4 leukemia): 44.7 µM
TGI (MOLT-4 leukemia): > 100 µM
GI50 (NCI-H226 lung): > 100 µM
TGI (NCI-H226 lung): > 100 µM
GI50 (NCI-H23 lung): > 100 µM
TGI (NCI-H23 lung): > 100 µM
GI50 (NCI-H322M lung): > 100 µM
TGI (NCI-H322M lung): > 100 µM
GI50 (NCI-H522 lung): > 100 µM
TGI (NCI-H522 lung): > 100 µM
GI50 (NCI/ADR-RES ovarian): > 100 µM
TGI (NCI/ADR-RES ovarian): > 100 µM
GI50 (OVCAR-4 ovarian): > 100 µM
TGI (OVCAR-4 ovarian): > 100 µM
GI50 (OVCAR-5 ovarian): > 100 µM
TGI (OVCAR-5 ovarian): > 100 µM
GI50 (OVCAR-8 ovarian): > 100 µM
TGI (OVCAR-8 ovarian): > 100 µM
GI50 (PC-3 prostate): > 100 µM
TGI (PC-3 prostate): > 100 µM
GI50 (RPMI-8226 leukemia): 18.9 µM
TGI (RPMI-8226 leukemia): > 100 µM
GI50 (SF-268 CNS): > 63.7 µM
TGI (SF-268 CNS): > 100 µM
GI50 (SK-MEL-2 melanoma): > 100 µM
TGI (SK-MEL-2 melanoma): > 100 µM
GI50 (SK-MEL-28 melanoma): > 100 µM
TGI (SK-MEL-28 melanoma): > 100 µM
GI50 (SK-MEL-5 melanoma): > 100 µM
TGI (SK-MEL-5 melanoma): > 100 µM
GI50 (SK-OV-3 ovarian): > 100 µM
TGI (SK-OV-3 ovarian): > 100 µM
GI50 (SN12C renal): > 100 µM
TGI (SN12C renal): > 100 µM
GI50 (SNB-19 CNS): > 100 µM
TGI (SNB-19 CNS): > 100 µM
GI50 (SNB-75 CNS): > 100 µM
TGI (SNB-75 CNS): > 100 µM
GI50 (SR leukemia): > 100 µM
TGI (SR leukemia): > 100 µM
GI50 (SW-620 colon): > 100 µM
TGI (SW-620 colon): > 100 µM
GI50 (T-47D breast): > 96.4 µM
TGI (T-47D breast): > 100 µM
GI50 (U251 glioblastoma): > 100 µM
TGI (U251 glioblastoma): > 100 µM
GI50 (UACC-257 melanoma): 41.5 µM
TGI (UACC-257 melanoma): > 95.1 µM
GI50 (UACC-62 melanoma): > 100 µM
TGI (UACC-62 melanoma): > 100 µM
GI50 (UO-31 renal): > 100 µM
TGI (UO-31 renal): > 100 µM

Source: PubChem BioAssay (NCI)
